# Entries after “also recorded” stand apart in the source; their conditions may differ. Like-named read-outs stand apart in the source and are kept apart here.
# System: postsynaptic QUIS-R of locust leg muscle
# Test: Antagonism of neurally-evoked twitch contraction of locust retractor unguis nerve-muscle preparation
# Set-up: species or system Schistocerca gregaria
# Conditions: for IC50: read-out: IC50
# Description: Electrophysiological studies. The metathoracic retractor unguis nerve-muscle preparation of the locust Schistocerca gregaria was dissected and mounted in a small Perspex bath as described previously (21). The pharmacological activity on the locust nerve muscle preparation, using reduction in neurally evoked twitch amplitude as the measure of activity. Ten fractions were pharmacologically active. […] Further purification of this fraction by reverse-phase HPLC gave four peaks (FIG. 2B), the most pharmacologically was in the major peak (hatched FIG. 2B) . This fraction gave 1.1 mg of toxin as amorphous powder.
# The retractor unguis muscle and its nerve were dissected from the metathoracic legs of adult, female locusts (Schistocerca gregaria) and mounted in a Perspex perfusion chamber as described by Usherwood and Machili (21) and Bateman, et al. (14). The muscle was stretched to maximal body length and attached at its tendon or apodeme to a Grass FT 10-strain gauge by a short length of nylon thread. The volume of the muscle bath was about 0.5 ml and its contents could be exchanged within 1 sec. The preparation was perfused continuously at the rate of 5-10 ml min^-1 (except during the application of toxin (see below)) with standard locust saline of the following composition (mM): NaCl, 180; KCl, 10; CaCl2, 2; Hepes, 10; buffered to pH 6.8. The retractor unguis muscle is innervated by two excitatory motoneurons (30) and an inhibitory motoneuron (19,32), but the influence of the latter on the responsiveness of the muscle is slight. Maximal stimulation of the retractor unguis nerve at 0.2 Hz produced a series of twitch contractions of constant amplitude, which were maintained for many hours in good preparations. The test compounds were kept at -20° C. They were dissolved in locust saline on the day of the assay and tested at room temperature. The compounds were applied by pipette to a nerve-muscle preparation such that the contents of the perfusion bath were completely replaced by the test solution. Exposure to the test compound lasted 20 min. Because of the limited availability of some of the compounds, the preparation was not perfused during this period. However, the amplitude of the retractor unguis muscle twitch rarely changed by more than 5-10% over a 20 minute period. During application of the test solutions the stimulation frequency was raised to 0.6 Hz for brief periods to test for stimulus frequency-dependent effects on twitch amplitude (31,37). Dose-inhibition data were obtained by testing the effects, on single retractor unguis muscle preparations, of a range of concentrations of the test compounds. Each concentration of the respective samples was tested at least thee times, and each compound was assayed usually over a 100-fold concentration range (a total of 7-10 concentrations). The standard deviations for twitch inhibition for any given concentration of a toxin rarely exceed 10%. Those compounds for which the deviation was greater than this are identified in Tables 1-7. There was some variation in the potency of PhTX-343 and the test compounds between nerve-muscle preparations. In order to compensate for this, the following procedure was adopted: PhTX-343 was assayed at a variety of concentrations on eight retractor unguis nerve-muscle preparations to give a cumulative dose-inhibition relationship for this toxin. The concentration of PhTX-343 which reduced the twitch contraction by 50% (IC50) was then determined by fitting a curve to the data using the following equation: [formula] where: [T]= toxin concentration, I= % inhibition, Imax =maximum inhibition= 100% and n' represents the Hill slope coefficient. […] The ratio of the actual reduction in twitch amplitude obtained with this single concentration of PhTX-343 and the 50% reduction that was anticipated from the cumulative dose-inhibition relationship for this toxin, was then used as a factor to normalize the data for the test compound. […]
# [1] = Table 1, region A modifications, 20 min exposure, normalized with PhTX-343, ** SD < 30%
# [2] = Table 1, relative to PhTX-343 = 1.0
# [3] = Table 2, region B modifications, * SD < 20%
# [4] = Table 2, relative to PhTX-343 = 1.0
# [5] = Table 7, bis-acyl spermine analogues
# [6] = Table 7, bis-acyl spermine analogues, relative to PhTX-343
# [7] = Table 3, region C modifications
# [8] = Table 3, relative to PhTX-343 = 1.0
# [9] = Table 4, terminal amino group modifications, * SD < 20%
# [10] = Table 4, relative to PhTX-343 = 1.0
compound,measurement,setting,value
CCCC(=O)N[C@@H](Cc1ccc(O)cc1)C(=O)NCCCCN [drawing 25],IC50,[1],2000 µM
same,Relative Potency,[2],0.01
CCCC(=O)N[C@@H](Cc1ccc(OC(C)=O)cc1)C(=O)NCCCNCCCCNCCCN [Compound 11],potency compared with PhTX-343 or other analogues (in words),,unchanged potencies
CCCC(=O)N[C@@H](Cc1ccc(OC(C)=O)cc1)C(=O)NCCCNCCCCNCCCN [drawing 33],IC50,[3],33 µM
same,Relative Potency,[4],0.7
"CCCC(=O)N[C@@H](Cc1ccc(O)cc1)C(=O)NCCCNCCCNCCCCN [Compound 3, PhTX-334]",potency compared with natural PhTX-433 (in words),,higher potency than the natural PhTX-433 toxin
same,"physiological activity relative to that of PhTX-433, by locust muscle twitch inhibition concentration",PhTX-433 = 100%,125%
same,effect on the neurally-evoked twitch contraction (in words),toxin 1-10 μM,influenced the twitch contraction in the same qualitative fashion as PhTX-433
[N-]=[N+]=Nc1ccc(C(=O)N[C@@H](Cc2ccc(O)cc2)C(=O)NCCCNCCCCNCCCN)cc1 [Compound 26],potency compared with PhTX-343 or other analogues (in words),,reasonably active
CCCCCCCCCC(=O)NCCCNCCCCNCCCNC(=O)CCCCCCCCC [drawing 82],IC50,[5],23 µM
same,Relative Potency,[6],1.0
NCCCNCCCCNCCCNC(=O)[C@H](Cc1ccc(O)cc1)NC(=O)CCCCCNC(=O)CCCCC1SCC2NC(=O)NC21 (some centres unmarked),IC50 (M),[7],insol.
CCCCCCC(=O)N[C@@H](Cc1ccc(O)cc1)C(=O)NCCCNCCCCNCCCN [drawing 43],IC50,[7],10 µM
same,Relative Potency,[8],2.7
CCCC(=O)N[C@@H](C)C(=O)NCCCNCCCCNCCCN [drawing 37],IC50,[3],45 µM
same,Relative Potency,[4],0.5
CCCC(=O)N[C@@H](Cc1ccc(O)cc1)C(=O)NCCCNCCCCNCCCNC(=O)C(N)CCCCNC(=O)C(N)CCCCN (some centres unmarked) [drawing 63],IC50,[9],11 µM
same,Relative Potency,[10],2.1
CCCCCCC(=O)NCCCNCCCCNCCCN [drawing 77],IC50,"Table 7, mono-acyl spermine analogues",100 µM
same,Relative Potency,"Table 7, mono-acyl spermine analogues, relative to PhTX-343",0.2
"[N-]=[N+]=Nc1ccc(C(=O)N[C@@H](Cc2cc(I)c(O)c(I)c2)C(=O)NCCCNCCCCNCCCNC(=O)[C@@H](N)CCCCN)cc1 [Compound 41, N- (.rho.-azidobenzamide)-di-iodo-L-tyrosyl-spermine-L-lysine-triamide]",potency compared with PhTX-343 or other analogues (in words),,more potent than the latter
CCCC(=O)N[C@@H](Cc1ccc(O)cc1)C(=O)NCCCNCCCCNCCCNC(=O)C(N)CCCCN (some centres unmarked) [drawing 61],IC50,[9],13 µM
same,Relative Potency,[10],1.8
CCCC(=O)N[C@@H](Cc1ccc(O)cc1)C(=O)NCCCNCCCCNCCCNC(=O)C(N)CCCCNC(=O)C(N)CCCCN (some centres unmarked) [Compound 37],potency compared with PhTX-343 or other analogues (in words),,more active than compound 35
CCCC(=O)N[C@@H](Cc1ccc(O)cc1)C(=O)NCCCCNCC(C)CNCCCN (some centres unmarked) [drawing 27],IC50,[1],40 µM
same,Relative Potency,[2],0.6
CCCC(=O)N[C@@H](Cc1ccc(O)cc1)C(=O)NCCCNCCCCNCCCNC(C)=O [Compound 32],potency compared with PhTX-343 or other analogues (in words),,low potency
CCCC(=O)NCCCNCCCCNCCCNC(=O)CCC [Compound 50],potency compared with PhTX-343 or other analogues (in words),,low potencies
same,IC50,[5],2300 µM
same,Relative Potency,[6],0.1
CCCC(=O)N[C@@H](Cc1ccc(O)cc1)C(=O)NCCCNCCCCNCCCNC(=O)CN [drawing 59],IC50,[9],100 µM
same,Relative Potency,[10],0.2
"CCCC(=O)N[C@@H](Cc1ccc(O)cc1)C(=O)NCCCCN [Compound 5, PhTX-4]",potency compared with PhTX-343 or other analogues (in words),,reduced potency
"CCCCCCCCCC(=O)NCCCNCCCCNCCCNC(=O)CCCCCCCCC [Compound 52, bis-C10 -spermine]",potency compared with PhTX-343 or other analogues (in words),,as active as PhTX-343; also recorded: relatively high potencies
CCCC(=O)N[C@@H](Cc1ccc(O)cc1)C(=O)NCCC[N+](C)(C)CCCC[N+](C)(C)CCC[N+](C)(C)C [drawing 29],IC50,[1],130 µM
same,Relative Potency,[2],0.2
"CCCCCCC(=O)NCCCNCCCCNCCCN [Compound 48, Heptanoylspermine-amide]",potency compared with PhTX-343 or other analogues (in words),,low potencies
CCCC(=O)N[C@@H](Cc1ccc(O)cc1)C(=O)NCCCNCCCNCCCCN [drawing 23],IC50,[1],15 µM
same,Relative Potency,[2],1.5
"CCCC(=O)N[C@@H](Cc1ccc(O)cc1)C(=O)NCCCNCCCCNCCCNC(=O)[C@@H](N)CCCNC(=N)N [Compound 36, PhTX-343-L-arginine-amide]",potency compared with PhTX-343 or other analogues (in words),,increased potency
CCCCC(CNCCCN)CNCCCCNC(=O)[C@H](Cc1ccc(O)cc1)NC(=O)CCC (some centres unmarked) [drawing 28],IC50,[1],4 µM
same,Relative Potency,[2],5.6
CCCC(=O)NCC(=O)NCCCNCCCCNCCCN [drawing 38],IC50,[3],130 µM
same,Relative Potency,[4],0.2
CCCC(=O)N[C@@H](Cc1ccc(O)cc1)C(=O)NCCCNCCCCNCCCN [drawing 31],IC50,[3],23 µM
same,Relative Potency,[4],1.0
CCCCCCC(=O)NCCCNCCCCNCCCNC(=O)CCCCCC,IC50 (M),[5],agonist
CCCC(=O)N[C@@H](Cc1c[nH]c2ccccc12)C(=O)NCCCNCCCCNCCCN [drawing 39],IC50,[3],2.5 µM
same,Relative Potency,[4],9.2
"CCCC(=O)N[C@@H](Cc1ccc(O)cc1)C(N)=O [Compound 6, PhTX-0]",potency compared with PhTX-343 or other analogues (in words),,slightly more active than PhTX-4
[N-]=[N+]=C(C(=O)NCCCC(=O)N[C@@H](Cc1ccc(O)cc1)C(=O)NCCCNCCCCNCCCN)C(F)(F)F [Compound 27],potency compared with PhTX-343 or other analogues (in words),,only weakly active
NCCCNCCCCNCCCNC(=O)[C@H](Cc1ccc(O)cc1)NC(=O)Cc1ccccc1 [Compound 24],potency compared with PhTX-343 or other analogues (in words),,less potent than PhTX-343
NCCCNCCCCNCCCNC(=O)[C@H](Cc1ccc(O)cc1)NC(=O)/C=C/c1ccccc1 [Compound 25],potency compared with PhTX-343 or other analogues (in words),,greatly increased potency
CCCC(=O)N[C@@H](Cc1ccc(O)cc1)C(=O)NCCCNCCCCNCCCNC(=O)CCCN [drawing 60],IC50,[9],68 µM
same,Relative Potency,[10],0.3
NCCCNCCCCNCCCNC(=O)[C@H](Cc1ccc(O)cc1)NC(=O)CCCNc1ccc([N+](=O)[O-])cc1[N+](=O)[O-],IC50,[7],53 µM
same,Relative Potency,[8],0.4
"CCCC(=O)N[C@@H](Cc1cc(I)c(O)c(I)c1)C(=O)NCCCNCCCCNCCCNC(=O)[C@@H](N)CCCNC(=N)N [Compound 39, diiodo-PhTX-arginine]",potency compared with PhTX-343 or other analogues (in words),,more potent than PhTX-343
CCCC(=O)N[C@@H](CC(C)C)C(=O)NCCCNCCCCNCCCN [drawing 36],IC50,[3],23 µM
same,Relative Potency,[4],1.0
NCCCNCCCCNCCCNC(=O)[C@H](Cc1ccc(O)cc1)NC(=O)c1ccccc1 [drawing 47],IC50,[7],2.83 µM
same,Relative Potency,[8],8.2
